Assay results from patent publication US7659299B2, “Compounds inhibiting the binding of sap for treating osteoarthritis” (Pentraxin Therapeutics Limited, priority 2003, dated 2010).

Target: SAP (Homo sapiens, UniProt P02743)
Experiment: Treatment of patients with osteoarthritis: plasma SAP concentration and joint symptoms
Assay type: in vivo
Parameters: 5 μl of radiolabelled SAP in TN; from tissue
Settings: patient
From the text: 1) The patient, a person retired General Practitioner living in New Zealand, has a long history of bone and joint injuries, starting as a child on a farm and continuing as a teenager and then adult playing rugby and skiing. They have suffered from pain and swelling of previously damaged joints following manual work and especially in cold weather. The proximal interphalangeal joints of the left middle and right fourth fingers, the right elbow and the mid-thoracic intervertebral joints have been most affected. Symptoms and signs have progressively worsened over the past 22 years, so that their capacity for physical work had become very restricted and during winter they have required frequent or continuous treatment with non-steroidal anti-inflammatory drugs. These are all typical manifestations of osteoarthritis. In 2000 the discovery of impaired renal function led eventually to a second, and completely separate diagnosis of hereditary systemic amyloidosis caused by a mutation in the gene for fibrinogen A α-chain.
They started experimental treatment for their amyloidosis on 9 Oct. 2001 with (R)-1-[6-[(R)-2-Carboxy-pyrrolidin-1-yl]-6-oxo-hexanoyl]pyrrolidine-2-carboxylic acid, 10 mg b.d. by subcutaneous injection. […] This improvement was sustained and increased so that by April 2002, the autumn in New Zealand, it was impressively beyond doubt. Throughout that winter, for the first time in many years, […] no longer required treatment with non-steroidal anti-inflammatory drugs, despite increased physical activity. […] Over the past few months they have been doing regular hard physical work on the land, fencing and landscaping, including lifting and carrying significant weights, without suffering any of the pain and swelling that previously severely affected them even without the stress of unusual physical activity.
Their shoulders were painful, particularly when reaching up or behind their head, making drying their hair and some household tasks painful and difficult. […] They also experienced pain in their right wrist when performing some tasks, particularly opening jars, a manoeuvre that they found difficult. These symptoms are all compatible with osteoarthritis.
CD has hereditary systemic amyloidosis caused by a mutation in the gene for apolipoprotein AI, diagnosed in October 2001 during investigation of chronic renal impairment. […] They started experimental treatment for their amyloidosis on 22 Oct. 2001 with (R)-1-[6-[(R)-2-Carboxy-pyrrolidin-1-yl]-6-oxo-hexanoyl]pyrrolidine-2-carboxylic acid, 15 mg b.d. by subcutaneous injection. […] Treatment with (R)-1-[6-[(R)-2-Carboxy-pyrrolidin-1-yl]-6-oxo-hexanoyl]pyrrolidine-2-carboxylic acid finished in October 2002 and their remarkable remission has continued to the present (June 2003).

SAP, sequence (P02743 20-223): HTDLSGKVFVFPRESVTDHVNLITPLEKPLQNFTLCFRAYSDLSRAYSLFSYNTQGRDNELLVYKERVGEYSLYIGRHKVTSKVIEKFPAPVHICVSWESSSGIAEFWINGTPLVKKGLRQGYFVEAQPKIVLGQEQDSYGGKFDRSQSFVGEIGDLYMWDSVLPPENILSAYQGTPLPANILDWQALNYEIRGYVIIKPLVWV

O=C(O)[C@H]1CCCN1C(=O)CCCCC(=O)N1CCC[C@@H]1C(=O)O [Ro-63-8695, (R)-1-[6-[(R)-2-Carboxy-pyrrolidin-1-yl]-6-oxo-hexanoyl]pyrrolidine-2-carboxylic acid]
plasma SAP concentration reduced by (10 mg b.d. subcutaneous injection, after three months): over 95% | symptoms of osteoarthritis (10 mg b.d. subcutaneous injection, treatment Oct. 2001 to June 2003): remained in remission | plasma SAP concentration reduced by (15 mg b.d. subcutaneous injection, after two months): over 95% | joint pain and function (15 mg b.d. subcutaneous injection, by January 2002 (start 22 Oct. 2001)): free of pain and had normal function of their joints
